Assay results published in patent US5324725A, “7-fused 2-(piperazinoalkyl) indole derivatives, intermediates and compositions thereof” (Kali-Chemie Pharma GmbH, priority 1991, dated 1994).

Assays:
[1] = system: Passive cutaneous anaphylaxis (P.C.A.); assay: Inhibition of passive cutaneous anaphylaxis (P.C.A.); assay type: in vivo, rat (Sprague-Dawley); details: Rattus norvegicus, 1 h; rats, 2 × 10^-5 mol/kg p.o., one hour before ovalbumin challenge
Procedure, shortened: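 Sprague-Dawley rats (150-180 g) were sensitized intradermally with rat IgE-rich anti-ovalbumin serum and challenged 24 h later with i.v. ovalbumin 8.25 mg/kg plus Evans blue. Compound was given orally at 2×10^-5 mol/kg 1 h before challenge. Dye exudation was scored visually at 30 min as % inhibition versus vehicle controls.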

cyclooxygenase = molecular target: T1, cyclooxygenase (Mus musculus, UniProt P22437); assay: Cyclooxygenase inhibition: release of 6-keto-PGF1 α from zymosan-stimulated mouse peritoneal macrophage cells; assay type: cell-based; details: 10^-5 mol/l, read-out: In vitro % inhibition effect on the release of 6-keto-PGF1 α
T1 construct: A cell suspension containing peritoneal cells of male mice 8-10 weeks old was obtained; endogenous in cells; host or cells: mouse peritoneal macrophages (male mice 8-10 weeks old), zymosan-stimulated
T1 sequence (P22437 27-602): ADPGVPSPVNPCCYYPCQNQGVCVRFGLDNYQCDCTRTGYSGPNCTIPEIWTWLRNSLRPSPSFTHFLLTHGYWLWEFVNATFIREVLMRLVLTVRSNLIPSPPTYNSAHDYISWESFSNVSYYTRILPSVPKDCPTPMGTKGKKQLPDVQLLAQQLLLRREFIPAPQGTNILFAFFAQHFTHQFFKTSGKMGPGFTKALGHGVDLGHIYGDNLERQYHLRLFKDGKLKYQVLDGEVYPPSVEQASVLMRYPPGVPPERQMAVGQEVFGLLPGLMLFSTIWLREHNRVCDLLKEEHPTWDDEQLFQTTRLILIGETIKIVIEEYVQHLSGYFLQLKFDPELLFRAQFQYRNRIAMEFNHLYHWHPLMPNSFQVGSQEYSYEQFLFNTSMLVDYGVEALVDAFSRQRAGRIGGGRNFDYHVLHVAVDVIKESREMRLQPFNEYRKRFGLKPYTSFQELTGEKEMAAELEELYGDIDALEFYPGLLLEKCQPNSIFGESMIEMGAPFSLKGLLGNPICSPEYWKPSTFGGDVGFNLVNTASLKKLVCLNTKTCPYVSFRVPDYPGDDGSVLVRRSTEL
Source text: 5. In vitro determination of cyclooxygenase inhibition and 5-lipoxygenase inhibition.
After activation of the cell, arachidonic acid contained in cell membranes is metabolized in two ways. Leukotrienes, inter alia leukotriene C4, are formed under the action of the enzyme 5-lipoxygenase (5-LO), and prostanoids are formed under the action of the enzyme cyclooxygenase (CO). In in vitro systems, the metabolites are secreted from the cell.
To investigate the cyclooxygenase-inhibiting and the 5-lipoxygenase-inhibiting properties, the inhibitory effect of the test substances on the biosynthesis of the arachidonic acid derivatives leukotriene C4 (LTC4) and 6-ketoprostaglandin F1 α (6-keto-PGF1 α) is determined in vitro on mouse peritoneal macrophage cells. This was accomplished by determining the LTC4 and 6-keto-PGF1 α contents in a culture medium of mouse peritoneal macrophage cells by zymosan stimulation as described by Scott et al. (J. Exp. Med. 152 (1980), 324-335) and by Fradin et al. (Prostaglandins, 33 (1987), 579-589).
A cell suspension containing peritoneal cells of male mice 8-10 weeks old was obtained in a known manner. A commercially available cell culture solution (RPMI 1640 from Messrs. Gibco) was used to which heparin (I0 international units/ml) and antibiotics were added according to the recipe of Bonney et al. (Biochem. J. 176 (1978) 422-433). The cell suspension was adjusted to a cell concentration of 10^6 cells per ml and distributed uniformly on titer plates containing […] (wells). These were kept for two hours in a humidified incubator filled with air enriched with 7% CO2. Cells not adhering to the titer cell walls were then removed by washing. The remaining macrophage cells adhering to the walls were incubated for about 12 hours in a suspension medium to which 0.1% bovine serum albumin (BSA) were added. The suspension medium was then replaced by a Hanks balanced salt solution (HBSS) containing 10 mM Hepes (hydroxyethyl-piperazinoethanesulfonic acid), to which a 0.1% strength solution of the test substances in aqueous, 1% strength dimethylformamide or only the solvent had been added. After 15 minutes the arachidonic acid metabolism was stimulated by adding 10 particles of zymosan (=glycoproteinmixture, isolated from cell walls of beer yeast, Saccharomyces cerevisiae, manufactured by Sigma Chemical Co., Munich) per titer cell. After 2 hours, samples of each of the supernatant liquids were investigated for their 6-keto-PGF1 α and LTC4 contents by means of an enzyme immunoassay (EIA) carried out by the method of Pradelles et al. (Analytical Chem. 57 (1985), 1170-1173). The determination of LTC4 and the determination of 6-keto-PGF1 α were each carried out in comparison with a comparative scale on suitable dilutions of the samples (1:50 to 1:250 for the LTC4 determination and 1:250 to 1:1250 for the 6-keto-PGF1 α determination). To determine the inhibitory effect of a 10^-5 molar concentration of the compounds, the amount of reference eicosanoids was determined and the inhibitory effect was calculated from this in % inhibition compared to the measurements of the zymosan controls.

SMILES	inhibition in vivo at 20 µmol/kg [1]	inhibition at 10 µM (cyclooxygenase)
Cc1ccnc(N2CCN(CCc3c(C)n4c5c(ccc(Cl)c35)OCC4)CC2)c1 [Example 35]	75%	51%
Cc1ccnc(N2CCN(CCc3c(C)n4c5c(cccc35)CCC4)CC2)c1 [Example 1, 5,6-Dihydro-2-methyl-1-{2-[4-(4-methylpyridin-2-yl)piperazin-1-yl]ethyl}-4H-pyrrolo[3,2,1-ij]quinoline]	98%	23%
Cc1ccnc(N2CCN(CCc3c(C)n4c5c(cc(Br)cc35)CCC4)CC2)c1 [Example 9, 8-Bromo-2-methyl-1-{2-[4-(4-methylpyridin-2-yl)piperazin-1-yl]ethyl}-5,6-dihydro-4H-pyrrolo[3,2,1-ij]quinoline]	90%	19%
CC(=O)c1cc2c3c(c1)c(CCN1CCN(c4cc(C)ccn4)CC1)c(C)n3CCC2 [Example 67]	100%	36%
Cc1ccnc(N2CCN(CCc3c(C)n4c5c(ccc(C(=O)C(C)C)c35)SCC4)CC2)c1 [Example 91]	86%	54%
Cc1ccnc(N2CCN(CCc3c(C)n4c5c(cccc35)CC4C)CC2)c1 (stereo not drawn) [Example 33]	100%	21%
CCCCCCCC1CCc2cccc3c(CCN4CCN(c5cc(C)ccn5)CC4)c(C)n1c23 (stereo not drawn) [Example 4, 4-n-heptyl-5,6-dihydro-2-methyl-1-{2-[4-(4-methylpyridin-2-yl)piperazin-1-yl]ethyl}-4H-pyrrolo[3,2,1-ij]-quinoline]	55%	20%
Cc1ccnc(N2CCN(CCc3c(C)n4c5c(cc(NC(=O)c6ccccc6)cc35)CCC4)CC2)c1 [Example 25, 8-Benzoylamino-5,6-dihydro-2-methyl-1-{2-[4-(4-methylpyridin-2-yl)piperazin-1-yl]-ethyl}-4H-pyrrolo[3,2,1-ij]quinoline]	100%	24%
Cc1ccnc(N2CCN(CCc3c(-c4ccc(OCCCCO)cc4)n4c5c(cccc35)CCC4)CC2)c1 [Example 12, 2-[4-(4-Hydroxybutyloxy)-phenyl]-1-{2-[4-(4-methylpyridin-2-yl)piperazin-1-yl]ethyl}-5,6-dihydro-4H-pyrrolo[3,2,1-ij]quinoline]	25%	53%
CCCCC1CCc2cc(C(=O)C(C)C)cc3c(CCN4CCN(c5cc(C)ccn5)CC4)c(C)n1c23 (stereo not drawn) [Example 23, 4-n-Butyl-5,6-dihydro-8-(2-methyl-1-oxopropyl)-2-methyl-1-{2-[4-(4-methylpyridin-2-yl)piperazin-1-yl]ethyl}-4H-pyrrolo[3,2,1-ij]quinoline]	100%	43%
Cc1ccnc(N2CCN(CCc3c(C)n4c5c(cc(C(=O)c6ccccc6)cc35)CCC4)CC2)c1 [Example 66]	80%	72%
Cc1ccnc(N2CCN(CCc3c(CO)n4c5c(cccc35)CCC4)CC2)c1 [Example 16, 5,6-dihydro-2-hydroxymethyl-1-{2-[4-(4-methylpyridin-2-yl)piperazin-1-yl]ethyl}-4H-pyrrolo[3,2,1-ij]quinoline]	85%	18%
Cc1ccnc(N2CCN(CCc3c(C)n4c5c(cc(N(C)C)cc35)CCC4)CC2)c1 [Example 81]	86%	16%
Cc1ccnc(N2CCN(CCc3c(C)n4c5c(cc(CC(C)C)cc35)CCC4)CC2)c1 [Example 21, 5,6-Dihydro-2-methyl-8-(2-methylpropyl)-1-{2-[4-(4-methylpyridin-2-yl)piperazin-1-yl]ethyl}-4H-pyrrolo[3,2,1-ij]quinoline]	95%	64%
Cc1ccnc(N2CCN(CCc3c(C)n4c5c(cc(C(O)C(C)C)cc35)CCC4)CC2)c1 (stereo not drawn) [Example 19, 5,6-Dihydro-8-(1-hydroxy-2-methylpropyl)-2-methyl-1-{2-[4-(4-methylpyridin-2-yl)piperazin-1-yl]ethyl}-4H-pyrrolo-[3,2,1-ij]quinoline]	95%	5%
C=CCCC1CCc2cccc3c(CCN4CCN(c5cc(C)ccn5)CC4)c(C)n1c23 (stereo not drawn) [Example 62]	100%	64%
Cc1ccnc(N2CCN(CCc3c(C)n4c5c(cc(N)cc35)CCC4)CC2)c1 [Example 20, 8-Amino-5,6-dihydro-2-methyl-1-{2-[4-(4-methylpyridin-2-yl)piperazin-1-yl]ethyl}-4H-pyrrolo[3,2,1-ij]quinoline]	100%	42%
Cc1cc2c3c(c1)c(CCN1CCC(C(=O)c4ccc(F)cc4)CC1)c(C)n3CCC2 [Example 55]	80%	41%
